According to the supplement of paper PMC11451515:

System: SEM cells
Experiment: cell viability relative to DMSO control; higher = less cytotoxic
Settings: 48 h
Procedure, shortened: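 Library compounds in DMSO were pin-dosed into 1536-well plates (5 μl) holding NOMO1 or SEM (500 cells/well) or P12-Ichikawa (1000 cells/well) leukemia cells, across an 11-point threefold series of 47 μM to 0.79 nM. Each cell line had been adapted for at least four passages in each medium. CellTiter-Glo One luminescence was read after 48 h at 37°C. Viability is the per-plate percentage relative to DMSO wells, with cell-free wells as background.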

[1] = HPLM + 10% dialyzed FBS, 0.000781 µM
[2] = HPLM + 10% dialyzed FBS, 0.00234 µM
[3] = HPLM + 10% dialyzed FBS, 0.00702 µM
[4] = HPLM + 10% dialyzed FBS, 0.0211 µM
[5] = HPLM + 10% dialyzed FBS, 0.0632 µM
[6] = HPLM + 10% dialyzed FBS, 0.19 µM
[7] = HPLM + 10% dialyzed FBS, 0.569 µM
[8] = HPLM + 10% dialyzed FBS, 1.71 µM
[9] = HPLM + 10% dialyzed FBS, 5.12 µM
[10] = HPLM + 10% dialyzed FBS, 15.4 µM
[11] = HPLM + 10% dialyzed FBS, 46.1 µM
[12] = RPMI 5 mM glucose + 10% FBS, 0.000781 µM
[13] = RPMI 5 mM glucose + 10% FBS, 0.00234 µM
[14] = RPMI 5 mM glucose + 10% FBS, 0.00702 µM
[15] = RPMI 5 mM glucose + 10% FBS, 0.0211 µM
[16] = RPMI 5 mM glucose + 10% FBS, 0.0632 µM
[17] = RPMI 5 mM glucose + 10% FBS, 0.19 µM
[18] = RPMI 5 mM glucose + 10% FBS, 0.569 µM
[19] = RPMI 5 mM glucose + 10% FBS, 1.71 µM
[20] = RPMI 5 mM glucose + 10% FBS, 5.12 µM
[21] = RPMI 5 mM glucose + 10% FBS, 15.4 µM
[22] = RPMI 5 mM glucose + 10% FBS, 46.1 µM
[23] = RPMI 5 mM glucose + 10% dialyzed FBS, 0.000781 µM
[24] = RPMI 5 mM glucose + 10% dialyzed FBS, 0.00234 µM
[25] = RPMI 5 mM glucose + 10% dialyzed FBS, 0.00702 µM
[26] = RPMI 5 mM glucose + 10% dialyzed FBS, 0.0211 µM
[27] = RPMI 5 mM glucose + 10% dialyzed FBS, 0.0632 µM
[28] = RPMI 5 mM glucose + 10% dialyzed FBS, 0.19 µM
[29] = RPMI 5 mM glucose + 10% dialyzed FBS, 0.569 µM
[30] = RPMI 5 mM glucose + 10% dialyzed FBS, 1.71 µM
[31] = RPMI 5 mM glucose + 10% dialyzed FBS, 5.12 µM
[32] = RPMI 5 mM glucose + 10% dialyzed FBS, 15.4 µM
[33] = RPMI 5 mM glucose + 10% dialyzed FBS, 46.1 µM

Row | Compound | cell viability [1] | cell viability [2] | cell viability [3] | cell viability [4] | cell viability [5] | cell viability [6] | cell viability [7] | cell viability [8] | cell viability [9] | cell viability [10] | cell viability [11] | cell viability [12] | cell viability [13] | cell viability [14] | cell viability [15] | cell viability [16] | cell viability [17] | cell viability [18] | cell viability [19] | cell viability [20] | cell viability [21] | cell viability [22] | cell viability [23] | cell viability [24] | cell viability [25] | cell viability [26] | cell viability [27] | cell viability [28] | cell viability [29] | cell viability [30] | cell viability [31] | cell viability [32] | cell viability [33]
1 | CC1=CC=CC=C1CN2C(=O)C/3=C(/CCN(CC4=CC=CC=C4)C3)N\5CC\N=C25 | 113% | 121% | 125% | 115% | 117% | 120% | 115% | 110% | 94% | 25.3% | 19.6% | 129% | 119% | 114% | 101% | 114% | 109% | 97.1% | 95.9% | 50.9% | 13.2% | 9.39% | 127% | 121% | 119% | 119% | 141% | 119% | 136% | 133% | 58.4% | 19.6% | 19.8%
2 | CC(=O)OCC(=O)[C@@]12\N=C(C)/O[C@@H]1C[C@H]3[C@@H]4CCC/5=C/C(=O)/C=C\[C@]5(C)[C@H]4[C@@H](O)C[C@]23C | 75.3% | 85.5% | 87.8% | 85.1% | 68% | 97% | 97.8% | 100% | 92.5% | 90.1% | 24.9% | 86.6% | 103% | 91.5% | 102% | 66.3% | 109% | 97.9% | 113% | 86.9% | 86.6% | 18.2% | 101% | 95.2% | 107% | 106% | 80.7% | 104% | 105% | 115% | 86.8% | 79.8% | 19.4%
3 | CCCCCCCc1ccc(CCc2cccc(O)c2C(=O)O)cc1 | – | – | – | – | – | – | – | – | – | – | – | 82.3% | 113% | 126% | 128% | 120% | 112% | 111% | 122% | 105% | 107% | 101% | 75.5% | 121% | 135% | 130% | 119% | 111% | 134% | 119% | 110% | 125% | 107%
4 | N[S+](=O)([O-])c1cc(Cl)c(Cl)c([S+](N)(=O)[O-])c1 | 108% | 95.8% | 108% | 109% | 101% | 90.5% | 106% | 104% | 111% | 39.1% | 88.9% | 85.2% | 97% | 111% | 97.7% | 119% | 112% | 116% | 98.2% | 116% | 35.5% | 84.6% | 102% | 86% | 98.8% | 101% | 106% | 97.9% | 99.5% | 105% | 107% | 35.6% | 87.1%
5 | Cc1c(Cn2c(C)nc3c(C(=O)O)cc(N4CCOCC4)cc32)cccc1C(F)(F)F | 84.5% | 101% | 109% | 111% | 101% | 97.1% | 115% | 109% | 103% | 117% | 103% | 93.2% | 115% | 102% | 106% | 103% | 112% | 119% | 114% | 107% | 89.1% | 88.5% | 94.1% | 105% | 100% | 109% | 112% | 95.5% | 103% | 95.5% | 90.1% | 92.3% | 79.8%
6 | NC(CO)(CO)CCc1ccc(Sc2cccc(OCc3ccccc3)c2)cc1Cl | 89.6% | 95.8% | 95.2% | 56.6% | 99.1% | 121% | 6.82% | 72.9% | 103% | 53.9% | 6.98% | 82.7% | 99% | 94.9% | 49.6% | 104% | 114% | 7.12% | 67.1% | 91.7% | 34.3% | 7.48% | 80.3% | 105% | 99.6% | 85.2% | 111% | 124% | 8.44% | 60.7% | 105% | 45.6% | 13.2%
